Results taken from patent publication US20060079550A1, “Amino acid derivatives useful for the treatment of alzheimer's disease” (priority 2001, published 2006).

target: aspartyl proteases, in particular, beta-secretase; experiment: Ki of the compounds listed in Tables 1 and 2 (no method described); assay type: biochemical; conditions: Table 1, compounds of formula Ia, W is -(CH2)n-

Compound | Ki
CC(C)CN([C@@H](CCCCNC(=O)CCc1cccc(N)c1)C(=O)O)S(=O)(=O)c1ccc(N)cc1 [Compound No. 118, Nα-isobutyl-Nα-(4-aminobenzenesulfonyl)-Nε-(3-aminodihydrocinnamoyl)-L-lysine] | 0.0205 µM
CC(C)CN([C@@H](CCCCNC(=O)CCc1ccccc1)C(=O)O)S(=O)(=O)c1ccc([N+](=O)[O-])cc1 [Compound No. 94, Nα-isobutyl-Nα-(4-nitrobenzenesulfonyl)-Nε-dihydrocinnamoyl-L-lysine] | 0.0339 µM
CC(C)CN([C@@H](CCCCNC(=O)OCC1c2ccccc2-c2ccccc21)C(=O)O)S(=O)(=O)c1ccc(Br)cc1 [Compound No. 4, Nα-isobutyl-Nα-(4-bromobenzenesulfonyl)-Nε-(9-fluorenylmethoxycarbonyl)-L-lysine] | 0.0114 µM
O=C(NCCCC[C@H](NS(=O)(=O)c1cccc2ccccc12)C(=O)O)OCC1c2ccccc2-c2ccccc21 [Compound No. 102, Nα-(1-naphthalenesulfonyl)-Nε-(9-fluorenylmethoxycarbonyl)-L-lysine] | 2.32 µM
COC(=O)[C@H](CCCCNC(=O)OCC1c2ccccc2-c2ccccc21)N(CC(C)C)S(=O)(=O)c1ccc(C)cc1 [Compound No. 123, Nα-isobutyl-Nα-(4-methylbenzenesulfonyl)-Nε-(9-fluorenylmethoxycarbonyl)-L-lysine Methyl Ester] | > 0.3 µM
O=C(O)[C@H](CCCCN(Cc1ccc(F)cc1)S(=O)(=O)c1ccc(Br)cc1)NS(=O)(=O)c1ccc(Br)cc1 [Compound No. 60, Nα,Nε-di-(4-bromobenzenesulfonyl)-Nε-(4-fluorobenzyl)-L-lysine] | > 50 µM
O=C(N[C@@H](CCCCNS(=O)(=O)c1ccc(Br)cc1)C(=O)O)C(c1ccccc1)c1ccccc1 [Compound No. 36, Nα-(diphenylacetyl)-Nε-(4-bromobenzenesulfonyl)-L-lysine] | 24 µM
O=C(NCCCC[C@H](NS(=O)(=O)c1ccc(Cl)cc1)C(=O)O)OCC1c2ccccc2-c2ccccc21 [Compound No. 72, Nα-(4-chlorobenzenesulfonyl)-Nε-(9-fluorenylmethoxycarbonyl)L-lysine] | 2.39 µM
O=C(O)[C@H](CCCCNS(=O)(=O)c1ccc(Br)cc1)NC(=O)C(O)(c1ccccc1)c1ccccc1 [Compound No. 37, Nα-(diphenylhydroxyacetyl)-Nε-(4-bromobenzenesulfonyl)-L-lysine] | 54 µM
CC(C)CN(C(CCCCNC(=O)C=Cc1ccccc1[N+](=O)[O-])C(=O)O)S(=O)(=O)c1ccc([N+](=O)[O-])cc1 [Compound No. 109, Nα-isobutyl-Nα-(4-nitrobeiizenesulfonyl)-Nε-(2-nitrocinnamoyl)-L-lysine] | > 0.3 µM
COC(=O)[C@H](CCCCNS(=O)(=O)c1ccc(Br)cc1)NC(=O)OCC1c2ccccc2-c2ccccc21 [Compound No. 15, Nα-(9-fluorenylmethoxycarbonyl)-Nε-(4-bromobenzenesulfonyl)-L-lysine Methyl Ester] | 47 µM
CC(C)c1cc(C(C)C)c(S(=O)(=O)NCCCC[C@H](NC(=O)OCC2c3ccccc3-c3ccccc32)C(=O)O)c(C(C)C)c1 [Compound No. 25, Nε-(2,4,6-triisopropylbenzencsulfonyl)-Nα-(9-fluorenylmethoxycarbonyl)-L-lysine] | > 3.1 µM
O=C(N[C@@H](CCCCNS(=O)(=O)c1ccc(Br)cc1)C(=O)O)OCC1c2ccccc2-c2ccccc21 [Compound No. 16, Nε-(4-bromobenzenesulfonyl)-Nα-(9-fluorenylmethoxycarbonyl)-L-lysine] | 13 µM
CC(C)CN([C@@H](CCCCNC(=O)OCC1c2ccccc2-c2ccccc21)C(=O)O)S(=O)(=O)c1cccc2ccccc12 [Compound No. 8, Nα-isobutyl-Nα-(1-naphthalenesulfonyl)-Nε-(9-fluorenylmethoxycarbonyl)-L-lysine] | 0.0549 µM
CC(C)CN([C@@H](CCCCNC(=O)C1c2ccccc2Oc2ccccc21)C(=O)O)S(=O)(=O)c1ccc([N+](=O)[O-])cc1 [Compound No. 96, Nα-isobutyl-Nα-(4-nitrobenzenesulfonyl)-Nε-(9xanthenecarbonyl)-L-lysine] | 0.0439 µM
Cc1ccc(S(=O)(=O)N(CC(C)C)C(CCCCNC(=O)C=Cc2ccccc2)C(=O)O)cc1 (stereo not shown) [compound 90] | 0.747 µM

Results, then the compound that gave them:

Ki | Compound
63 µM | Nα-(9-fluorenylmethoxycarbonyl)-L-lysyl-Nα-(9-fluorenylmethoxy-carbonyl)-Nε-(2,4,6trimethylbenzenesulfonyl)-L-lysine [compound 26]
6 µM | O=C(N[C@@H](CCCCNS(=O)(=O)c1ccc([N+](=O)[O-])cc1)C(=O)O)OCC1c2ccccc2-c2ccccc21 [Compound No. 50, Nε-(4-nitrobenzenesulfonyl)-Nα-(9-fluorenylmethoxycarbonyl)-L-lysine]
0.0062 µM | COc1cccc(CCC(=O)NCCCC[C@@H](C(=O)O)N(CC(C)C)S(=O)(=O)c2ccc(N)cc2)c1OC [Compound No. 119, Nα-isobutyl-Nα-(4-aminobenzenesulfonyl)-Nε-(2,3-dimethoxydihydrocinnamoyl)-L-lysine]
> 50 µM | O=C(N[C@@H](CCCCNS(=O)(=O)c1ccc(Br)cc1)C(=O)O)c1cnc2cc(C(F)(F)F)ccc2c1O [Compound No. 23, Nα-(4-hydroxy-7-trifluoromethylquinoline-3-carbonyl)-Nε-(4-bromobenzenesulfonyl)-L-lysine]
> 0.3 µM | COc1ccc(C=CC(=O)NCCCC[C@@H](C(=O)O)N(CC(C)C)S(=O)(=O)c2ccc([N+](=O)[O-])cc2)cc1 [Compound No. 113, Nα-isobutyl-Nα-(4-nitrobenzenesulfonyl)-Nε-(4-methoxycinnamoyl)-L-lysine]
6.8 µM | Nc1ccc(S(=O)(=O)NCCCC[C@H](NC(=O)OCC2c3ccccc3-c3ccccc32)C(=O)O)cc1 [Compound No. 52, Nε-(4-aminobenzenesulfonyl)-Nα-(9-fluorenylmethoxycarbonyl)-L-lysine]
0.0021 µM | CC(C)CN([C@@H](CCCCNC(=O)OCC1c2ccccc2-c2ccccc21)C(=O)O)S(=O)(=O)c1ccc(N)cc1 [Compound No. 44, Nα-(4-aminobenzenesulfonyl)-Nα-isobutyl-Nε-(9-fluorenylmethoxycarbonyl)-L-lysine]
1.3 µM | O=C(NCCC[C@H](NC(=O)OCC1c2ccccc2-c2ccccc21)C(=O)O)OCC1c2ccccc2-c2ccccc21 [Compound No. 73, NαNδ-di-(9-fluorenylmethoxycarbonyl)-L-ornithine]
8.9 µM | O=C(N[C@@H](CCCCNS(=O)(=O)c1ccccc1)C(=O)O)OCC1c2ccccc2-c2ccccc21 [Compound No. 49, Nε-benzenesulfonyl-Nα-(9-fluorchylmethoxycarbonyl)-L-lysine]
71 µM | O=C(CC1c2ccccc2-c2ccccc21)N[C@@H](CCCCNS(=O)(=O)c1ccc(Br)cc1)C(=O)O [Compound No. 30, Nα-(9-fluorenemethylcarbonyl)-Nε-(4-bromobenzenesulfonyl)-L-lysine]
10 µM | O=C(N[C@@H](CCCCNS(=O)(=O)c1ccc2ccccc2c1)C(=O)O)OCC1c2ccccc2-c2ccccc21 [Compound No. 32, Nε-(2-naphthalenesulfonyl)-Nα-(9-fluorenylmethoxycarbonyl)-L-lysine]
42.4 µM | O=C(O)[C@H](CCCNS(=O)(=O)c1ccc(Br)cc1)NS(=O)(=O)c1ccc(Br)cc1 [Compound No. 57, Nα,Nε-di-(4-bromobenzenesulfonyl)-L-ornithine]
